Data as given in patent US20120046273A1, “COMPOUNDS AND COMPOSITIONS FOR COGNITION-ENHANCEMENT, METHODS OF MAKING, AND METHODS OF TREATING” (MITHRIDION, INC., priority 2009, published 2012).
“Also recorded” adds a separate entry of the source. Read-outs that look alike come from different tables or passages of the source.

Experiments:
anesthetized rats = test: Salivation on iontophoretic transdermal delivery of agonist and antagonist from one patch; assay type: in vivo, rat; conditions: patch with 1 mg of 82 plus 0.01mg antagonist
Procedure: Experimental compounds and drug substances were delivered transdermally in rats using iontophoresis as follows. The fur was shaved from the backs of Long Evans Hooded rats weighing 225 to 325 grams, using electric clippers. Experimental compounds and drug substances were formulated at suitable concentrations an aqueous mixture of the following composition:
The polyvinyl alcohol/water was heated to 95 degC. until it became clear, then the other constituents were added and mixed well. The mixture was introduced into suitable molds containing a disc-shaped cavity 2.2 cm diameter and 2.2 mm deep. Molds may be fabricated using two glass sheets separated by a silicone rubber sheet with suitable sized cavities and filling ports cut-outs. The molds were subject to 3 freeze-thaw cycles at −80degC. and 20degC. until a firm cryogel was obtained. The gels were separated from the molds and trimmed into a circular shape. The gel was placed in a silicone rubber casing with one face in contact with a circular silver foil anodic electrode (22 mm dia/250 microns thick), and the assembly was placed on the shaved skin of the rat such that the other face was in contact with the skin on one side of the back of the rat. The rubber casing formed a seal over and around the gel/electrode assembly. […] This was placed on the other side of the shaved back of the rat, the edges of the gel discs being about 20 mm apart at their nearest point. A DC voltage was applied across the two patches from a constant-current DC power supply and the voltage adjusted to obtain the desired current, such that the skin of the animal completed the electrical circuit.
The devices were placed on shaved backs of anesthetized rats and salivation was measured.
The animals were placed slightly head-down on an inclined, heated ramp. Rectal temperature was monitored using a thermocouple and the temperature of the heating pad was adjusted manually to maintain normal body temperature. Saliva was collected from the mouth by absorption onto pre-weighed slips of filter paper. The filter paper was changed periodically and the amount of saliva was measured by weighing the filter paper slips

[1] = system: salivary gland inositol phosphate signaling pathway; test: In vivo tissue inositol phosphate signaling pathway activation, salivary gland; set-up: species or system rat; conditions: for block of increase in salivary gland inositol phosphate caused by 82: 1 mg/kg of 82; for inhibition of salivary gland inositol phosphate response to MCD-386: 50 mg/kg MCD-386, antagonist 0.3 mg/kg
Procedure: (§1) Experimental compounds or drug substances were administered using standard techniques to Long Evans Hooded rats weighing 225 to 350 grams, and which had been pretreated with a subcutaneous injection of lithium chloride at a suitable dose between 3 and 10 mmoles per kg. At suitable times the animals were briefly anesthetized using 5% isoflurane and euthanized by decapitation. The brains and submaxillary salivary glands were rapidly dissected out, and the hippocampuses were dissected from the brains. The dissected tissues were homogenized in a suitable volume of ice-cold phosphate-buffered saline containing 10 mM lithium chloride, pH7.4, using a tissue homogenizer, and used immediately or frozen in aliquots at −80degC. for future use. The concentration of inositol-1-phosphate was determined in the homogenates using the IPOne TR-FRET assay (CisBio cat no 621PAPEB), following the manufacturer's instruction

[2] = system: hippocampal inositol phosphate signaling pathway; test: In vivo tissue inositol phosphate signaling pathway activation, hippocampus; set-up: species or system rat; conditions: 1 mg/kg of 82; antagonist 0.03 mg/kg
Procedure: as §1

human FMO1 Supersomes = biological target: T1, human FMO1 Supersomes (Homo sapiens, UniProt Q01740); test: Metabolism by flavin monoxygenase 1 (FMO1) Supersomes; assay type: in vitro ADME
T1 construct: purchased BD Biosciences 456241
T1 sequence (Q01740 1-532): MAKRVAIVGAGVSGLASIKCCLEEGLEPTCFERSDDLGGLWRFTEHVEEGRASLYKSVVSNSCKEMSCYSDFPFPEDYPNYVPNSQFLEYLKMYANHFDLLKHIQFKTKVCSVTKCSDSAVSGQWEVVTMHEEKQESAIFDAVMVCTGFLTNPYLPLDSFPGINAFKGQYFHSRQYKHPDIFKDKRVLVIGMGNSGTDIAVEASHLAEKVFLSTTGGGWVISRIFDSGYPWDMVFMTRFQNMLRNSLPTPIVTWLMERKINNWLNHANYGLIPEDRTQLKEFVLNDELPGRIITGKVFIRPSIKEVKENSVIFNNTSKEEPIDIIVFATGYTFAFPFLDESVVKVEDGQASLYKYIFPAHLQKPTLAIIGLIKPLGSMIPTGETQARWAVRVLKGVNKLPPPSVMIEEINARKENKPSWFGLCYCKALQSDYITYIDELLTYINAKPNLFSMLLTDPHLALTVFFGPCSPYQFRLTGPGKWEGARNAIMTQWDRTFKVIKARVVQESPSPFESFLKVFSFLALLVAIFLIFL
Procedure: […] Aliquots were removed every 10 minutes, and 1% formic acid was added to halt the reaction. Samples were centrifuged, filtered through 0.2 micron spinfilter and the amount of each compound in the supernatants was quantitated using LC/MS/MS.

[3] = biological target: T2, human muscarinic M1 receptors (Homo sapiens, UniProt P11229); test: Inositol phosphate production in huM1/A9L cells (IPOne TR-FRET); assay type: cell-based; conditions: for huM1/A9L Smax: percentage of maximal stimulation by carbachol; for huM1/A9L ED50 relative to CCh: potency relative to carbachol
T2 construct: expressed in transfected cells; host or cells: A9L cells (gift from Professor W Messer)
T2 sequence (P11229 1-460): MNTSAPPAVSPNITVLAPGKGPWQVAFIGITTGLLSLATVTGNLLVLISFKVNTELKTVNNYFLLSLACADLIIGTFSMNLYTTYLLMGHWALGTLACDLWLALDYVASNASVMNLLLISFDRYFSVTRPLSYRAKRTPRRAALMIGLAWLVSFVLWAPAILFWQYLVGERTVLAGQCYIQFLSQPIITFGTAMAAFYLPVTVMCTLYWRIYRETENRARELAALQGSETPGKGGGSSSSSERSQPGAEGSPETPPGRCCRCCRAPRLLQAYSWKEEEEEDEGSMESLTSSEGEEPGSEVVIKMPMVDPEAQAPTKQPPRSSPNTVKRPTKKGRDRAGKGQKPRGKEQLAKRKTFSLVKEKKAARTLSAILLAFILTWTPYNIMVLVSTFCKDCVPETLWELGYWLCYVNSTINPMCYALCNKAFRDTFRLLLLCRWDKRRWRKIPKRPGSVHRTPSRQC
Procedure: (§2) Muscarinic M1 and M3 agonist activity was evaluated by measuring the stimulation of inositol phosphate (IP) production in the presence of lithium chloride from A9L cells transfected with expression plasmids containing human muscarinic M1 and M3 receptors, respectively. The cell lines were a gift from Professor W Messer, and the methods were as described in Tejada F R et al. J. Med. Chem. 2006; 49: 7518-31 except that the assay was scaled down to run in 384 well plates, and IP was measured in the cell lysates using the non-isotopic IPOne TR-FRET assay (CIS-BIO, Inc).
(§3) Cells were grown to 90% confluence in 384 well hi-base plates (Greiner Bio-One), compounds were added at suitable concentrations in growth medium containing 10 mM LiCL, buffered with an extra 10 mM HEPES (pH7.4), and incubated for 60 minutes at 37° C. Cells were lysed and assayed for IP following the manufacturer's instructions.
(§4) The value for a full agonist is 100%, while partial agonists give values below 100%.

[4] = biological target: T3, human muscarinic M3 receptors (Homo sapiens, UniProt P20309); test: Inositol phosphate production in huM3/A9L cells (IPOne TR-FRET); assay type: cell-based; conditions: for huM3/A9L Smax: percentage of maximal stimulation by carbachol; for huM3/A9L ED50 relative to CCh: potency relative to carbachol
T3 construct: expressed in transfected cells; host or cells: A9L cells (gift from Professor W Messer)
Procedure: as §2, §3, §4

[5] = system: pooled male Sprague-Dawley rat liver microsomes; test: Metabolism by rat liver microsomes; assay type: in vitro ADME; conditions: 6 hours incubation
Procedure: (§5) Compounds were incubated with pooled male Sprague-Dawley rat liver microsomes (BD Biosciences, #452501) and an NADP-regenerating system in a phosphate buffer (pH 7.4) for a total of 6 hours. Aliquots were removed every 2 hours, and 1% formic acid was added to halt the reaction. Samples were centrifuged, filtered through 0.2 micron spinfilter and the amount of each compound in the supernatants was quantitated using LC/MS/MS.

[6] = system: pooled male human liver microsomes; test: Metabolism by human liver microsomes; assay type: in vitro ADME; conditions: 6 hours incubation
Procedure: as §5, with “human” for “Sprague-Dawley rat”, “#452172)” for “#452501)”

[7] = system: apomorphine induced climbing; test: Apomorphine induced climbing model of psychosis; assay type: in vivo, CD-I mice; conditions: mice, sc
Procedure: As described in Costall et. al. European Journal of Pharmacology 1978, 50, 39. individual CD-I mice, 1-2 months old, were placed in a cylindrical wire mesh cage (13.2 cm high×13.2 cm diameter) constructed of steel wire 1 mm thick spaced at 1.2 cm^2. Cylinders were placed in a standard OptiMICE mouse cage (29×32×9×29 cm wide and 14 cm high) with adequate wood chip bedding provided. Observations of climbing (defined as 3 or more paws off the ground) were carried out every 5 minutes at a duration of 1 minute for 30 minutes. Animals were injected subcutaneously under isoflurane anesthesia with test compounds, reference compounds, which included clozapine, haloperidol, olanzapine and xanomeline, or PBS as a control. This was followed 5 minutes later by 2 mg/kg apomorphine hydrochloride. All drugs were dissolved in PBS or a mixture of (by volume) 96% PBS and 4% hydroxypropyl-beta-cyclodextrin, and dosed at a rate of 5 ml per kilogram of body weight. Following injections, animals were replaced in the mesh cages and observed for climbing (defined as 3 or more paws off the ground) every 5 minutes for a duration of 1 minute for 60 minutes after dosing.

[8] = antagonist 0.1 mg/kg (oxybutinin or darifenacin)

T3 sequence (P20309 whole entry): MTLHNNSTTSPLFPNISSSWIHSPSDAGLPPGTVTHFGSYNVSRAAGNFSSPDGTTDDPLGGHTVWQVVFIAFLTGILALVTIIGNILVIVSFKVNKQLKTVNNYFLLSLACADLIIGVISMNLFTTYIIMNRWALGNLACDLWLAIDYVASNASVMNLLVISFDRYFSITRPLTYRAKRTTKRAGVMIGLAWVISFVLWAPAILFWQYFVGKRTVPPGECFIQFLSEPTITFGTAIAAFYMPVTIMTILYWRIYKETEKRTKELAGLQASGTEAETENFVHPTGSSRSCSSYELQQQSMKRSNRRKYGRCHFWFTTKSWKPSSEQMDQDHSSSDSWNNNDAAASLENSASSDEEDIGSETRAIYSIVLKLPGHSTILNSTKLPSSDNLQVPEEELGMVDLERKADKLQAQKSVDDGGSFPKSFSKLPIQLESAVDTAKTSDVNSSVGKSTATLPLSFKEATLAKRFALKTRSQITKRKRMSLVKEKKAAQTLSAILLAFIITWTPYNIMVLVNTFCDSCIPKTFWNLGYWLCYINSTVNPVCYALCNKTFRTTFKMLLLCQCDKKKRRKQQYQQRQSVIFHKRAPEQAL

## CC(C)[N+](C)(CCOC(=O)C1c2ccccc2Oc2ccccc21)C(C)C [propantheline]
Anesthetized rats
  reduction of salivation caused by transdermal iontophoretic delivery of 82: greatly reduced
[1]; antagonist 0.03 mg/kg
  block of increase in salivary gland inositol phosphate caused by 82: can block
[1]
  inhibition of salivary gland inositol phosphate response to MCD-386: virtually completed inhibited
[2]
  block of increase in hippocampal inositol phosphate caused by 82: without blocking the increase in hippocampal inositol phosphate

## NC(=O)C(c1ccccc1)(c1ccccc1)[C@@H]1CCN(CCc2ccc3c(c2)CCO3)C1 [darifenacin]
Anesthetized rats
  reduction of salivation caused by transdermal iontophoretic delivery of 82: reduced salivation, but were less effective
[1]; [8]
  block of increase in salivary gland inositol phosphate caused by 82: less effective
[1]
  inhibition of salivary gland inositol phosphate response to MCD-386: less effective

## Clc1cccc(Cl)c1N=C1NCCN1 [Clonidine, reference compound]
other
  PAMPA (? × 106): 7.95 ? × 106

## CCN(CC)CC#CCOC(=O)C(O)(c1ccccc1)C1CCCCC1 (stereo not shown) [oxybutinin]
Anesthetized rats
  reduction of salivation caused by transdermal iontophoretic delivery of 82: reduced salivation, but were less effective
[1]; [8]
  block of increase in salivary gland inositol phosphate caused by 82: less effective
[1]
  inhibition of salivary gland inositol phosphate response to MCD-386: less effective

## Cc1noc(C2CN3CCC2CC3)n1 (stereo not shown) [Compound 127, 3-methyl-5-(quinuclidin-3-yl)-1,2,4-oxadiazole, reference compound]
Human FMO1 Supersomes
  extent of metabolism in FMO Supersomes: almost completely metabolized
[3]
  selectivity between M1 and M3 receptors: essentially non-selective
  huM1/A9L Smax: 50-100%
  huM1/A9L ED50 relative to CCh: ++ (potency >10x CCh)
PAMPA test
  PAMPA (? × 106): 3.02 ? × 106
  rate of crossing the lipid layer in the PAMPA test: significantly better
[4]
  huM3/A9L Smax: 50-100%
  huM3/A9L ED50 relative to CCh: ++ (potency >10x CCh)

## [2H]C([2H])([2H])c1noc(C2CCCNC2)n1 (stereo not shown) [Compound 88, 3-D3-Methyl-5-(piperidin-3-yl)-1,2,4-oxadiazole]
[5]
  extent of metabolism in rat liver microsomes: far more stable than compounds 126 and 127
Human FMO1 Supersomes
  extent of metabolism in FMO Supersomes: less than half metabolized
[3]
  huM1/A9L Smax: 116%
  huM1/A9L ED50 relative to CCh: + (potency 2-10x CCh)
[6]
  extent of metabolism in human liver microsomes: metabolized significantly less in human liver microsomes than in rat liver microsomes
[4]
  huM3/A9L Smax: 60%
  huM3/A9L ED50 relative to CCh: +/− (potency 0.5-2x CCh)
[7]
  activity in the apomorphine induced climbing model: potent and effective

## C[N+]1(C)CCC(OC(=O)C(O)(c2ccccc2)C2CCCC2)C1 (stereo not shown) [glycopyrrolate]
Anesthetized rats
  reduction of salivation caused by transdermal iontophoretic delivery of 82: greatly reduced
[1]; antagonist 0.03 mg/kg
  block of increase in salivary gland inositol phosphate caused by 82: can block
[1]
  inhibition of salivary gland inositol phosphate response to MCD-386: virtually completed inhibited
[2]
  block of increase in hippocampal inositol phosphate caused by 82: without blocking the increase in hippocampal inositol phosphate

## Cc1noc(C2=CCCN(C)C2)n1 [Compound 126, 3-methyl-5-(1-methyl-1,2,5,6-tetrahydropyridin-3-yl)-1,2,4-oxadiazole, reference compound]
[5]
  extent of metabolism in rat liver microsomes: nearly completely metabolized
Human FMO1 Supersomes
  extent of metabolism in FMO Supersomes: almost completely metabolized; also recorded: nearly completely metabolized
[3]
  potency and efficacy at M1 muscarinic receptors: reasonable potency and efficacy
  selectivity between M1 and M3 receptors: some selectivity for M1 versus M3 receptors
  huM1/A9L ED50 relative to CCh: + (potency 2-10x CCh)
PAMPA test
  PAMPA (? × 106): 12.75 ? × 106
  rate of crossing the lipid layer in the PAMPA test: slightly better
[6]
  extent of metabolism in human liver microsomes: nearly completely metabolized
[4]
  huM3/A9L ED50 relative to CCh: + (potency 2-10x CCh)
